According to a melting point compilation (Tetko et al.; mined from patent text by program, amines drawn as free bases though some values may be those of a salt):

SMILES	melting point [°C]
O=C(O)CCCc1nc2c(F)c(F)cc(F)c2s1	113 to 114
CCOCc1nc2c(N)nc3ccccc3c2n1CCOCc1ccccc1	144 to 146
CC(C)CCC(C)NC1=NS(=O)(=O)c2cc(Cl)ccc2N1 (configuration not stated)	> 220
COc1cc(CN(C)CCCOc2ccc(NC(=O)c3cccc4c(=O)c5cccc(OC)c5[nH]c34)cc2)cc(OC)c1OC	186
Cc1nc(-c2cn(-c3cc(-c4ccc(C(F)(F)F)cc4)cc(C(F)(F)F)n3)cn2)sc1S(=O)(=O)NC(C)(C)C	260
Cc1nc2ncnn2c(N2CCC(C)CC2)c1C1CCCC1	145
CCc1cc(NCc2ccc3oc(-c4ccccc4C#N)c(Br)c3c2)n2nccc2n1	186 to 194
COC(=O)c1cccc(C(=O)OC)c1S(=O)(=O)NC(=O)Nc1nc(OC)cc(OC)n1	164 to 167
CN(C)S(=O)(=O)c1cccc(NN)n1	117 to 120
CC1(C)CC(=O)c2cc(C#N)c(NC3CCCC3)nc2C1	154 to 156
O=C(O)c1ccc(OCCCCl)cn1	120 to 121
COc1ccc2c(c1)CCC1CCN(C)C(=O)C(CC(C)=O)=C21 (configuration not stated)	190 to 192
CCOC(=O)c1ncc2[nH]c3cccc(CN4CCOCC4)c3c2c1COC	195 to 196
CC1Cc2c(nc3ccc(F)cc3c2C(=O)O)-c2ccc(-c3ccccc3F)cc21 (configuration not stated)	274 to 277
Cc1ccccc1N(Cc1cccnc1)S(C)(=O)=O	97 to 98
O=c1c2ccc(Cl)cc2[nH]c2c(O)nn(Cc3ccccc3F)c(=O)c12	215
O=C1NC(=O)C(=Cc2ccc(C(=O)CCc3ccccc3)nc2)S1	> 250
CC(=O)NCCCC(=O)c1ccc(Cl)cc1CCC(=O)OCC(N)=O	114 to 116
C=CCCc1ccc(C(=O)O)c(O)n1	151 to 155
Nc1nc2nc(NCCCN3CCOCC3)ncc2cc1-c1c(Cl)cccc1Cl	224 to 230
Clc1ccc(OCCN2CCN3CC=C(c4ccncc4)N=C32)cc1	211 to 213
CCc1nnc2c(Cl)nc3cc(OC)ccc3n12	173 to 175
O=C(O)CCc1ccc(C(=O)CCl)cc1	151 to 153
O=C(CS(=O)c1cccs1)C12CC3CC(CC(C3)C1)C2 (configuration not stated)	114 to 116
CCC1CC(=O)N(Cc2cccc(NC(C)=O)c2)N=C1c1ccc(OC)c(OC)c1 (configuration not stated)	142

SMILES	melting point [°C]
O=C(CN1CCN(C(=O)CCCCCS)CC1)Nc1nc2ccccc2s1	89 to 92
Cc1ccc2[nH]c(=O)oc(=O)c2c1	257
CN(Cc1cc2c3c(c1)c(=O)c(C(=O)NCc1ccc(F)cc1)cn3CC(=O)N2C)C[C@@H](O)c1ccsc1	150 to 152
Cc1cc(SCc2ccccc2)ccn1	69 to 70
COc1cc(Nc2nccc(-c3ccc(N4CCN(CCO)CC4)nc3)n2)cc(OC)c1OC	156 to 157
O=C(OC1COC(n2cc(CCN3C(=O)c4ccccc4C3=O)c(=O)[nH]c2=O)C(OC(=O)c2ccccc2)C1OC(=O)c1ccccc1)c1ccccc1 (configuration not stated)	124
O=c1[nH]c2ccc(-c3cccc([N+](=O)[O-])c3)cc2[nH]1	324 to 325
CC(C)c1nn(-c2ncccn2)c(-c2ccc(F)cc2)c1Br	130 to 133
O=C1C2CCCC1CN(Cc1ccccc1)C2	48 to 50.5
Cn1cc(-c2c(-c3ccccc3)nn3ccncc23)ccc1=O	168 to 169
CCOC(=O)c1c(C)cc2c(c1C)c(=O)n(-c1ccccc1Cl)c(=O)n2CCCN(C)Cc1ccccc1	145 to 146
COc1ccc(C2=C(c3ccccc3)CCCc3cc(OCc4ccccc4)ccc32)cc1	163 to 164
COC(=O)c1sc(C)c(Br)c1SC(=O)N(C)C	175 to 176
O=C(Cc1ccccc1Br)NC1CCC1	159 to 161
CCCCCS(=O)(=O)NC(=O)/C=C/c1ccc(OCCCS(C)(=O)=O)cc1Oc1ncc(C(F)(F)F)cc1Cl	194 to 196
Cn1ccc(C(=O)c2ccccc2)c1	90 to 93
COc1cccc(C(=O)Nc2ccc3c(c2)CCC3=O)c1	203 to 204
CCOP(=O)(CNC(=O)OC(c1ccccc1)c1cc(C(C)(C)C)c(O)c(C(C)(C)C)c1)OCC (configuration not stated)	196 to 197
O=C(Nc1ccncc1)Nc1c(Cl)cccc1Cl	217 to 219
CCCCc1ccc(OC)c(-c2csc(NC(=O)c3ccc(C(=O)N4CCC(N5CCC(NS(C)(=O)=O)C5)CC4)cc3)n2)c1 (configuration not stated)	125
CCOCc1nc2c(N)nc(C)c(C)c2n1CCCNC(=O)OCC	148 to 150
CCOC(=O)C1=C[C@@H](OC(CC)CC)[C@H](NC(C)=O)[C@@H](NC(=O)OC(C)(C)C)C1	144 to 145
COC(=O)Nc1c(C(=O)OC)[nH]c2c(C)ccc(C)c12	184 to 185
CC(C)(C)CC(C)(C)c1cc(Cc2cc(C(C)(C)C)cc(C(C)(C)C)c2O)c(O)c(-n2nc3ccccc3n2)c1	137
Cc1csc(C(=O)O)c1NC(=O)OC(C)(C)C	179 to 180

SMILES	melting point [°C]
Cc1nc2ccccn2c(=O)c1CCN1CCC(Nc2nc3cncnc3n2Cc2cnccn2)CC1	180
Cc1ccc(C2(CNC(=O)Nc3c(C(C)C)cccc3C(C)C)CCC2)cc1	166 to 168
CCCCCCCCCCCCNC(=O)Oc1ccc2oc3ccccc3c2c1	112 to 114
Clc1ccc2c(ccn2C2=CCN(CCC3Cc4ccccc4C3)CC2)c1	93 to 94
O=C(O)C1Cc2c(ccc3c(=O)c4c(F)cccc4oc23)O1 (configuration not stated)	262 to 265
C=CCn1c(C)c(C)c2cnnc(CCc3ccc(F)cc3F)c21	118 to 119
O=C(O)C(Cc1ccccc1)Nc1cc(-c2ccc(CCc3ccccc3)cc2)ncn1 (configuration not stated)	216 to 218
Cc1cc(CNC(=O)C(=O)NCCc2ccccn2)c(C)o1	112 to 115
O=C1NC(Cc2ccccc2)=C2OCOCOC2C(Cc2ccccc2)N1 (configuration not stated)	125 to 130
CCCC1=C(C#N)C(c2cccc(Br)c2)c2c[nH]nc2N1 (configuration not stated)	202 to 205
Cc1cccc(NC(=O)NCC(=O)N(CC(=O)N(C)c2cccc(C)c2)c2ccccc2)c1	165
CCS(=O)(=O)c1ccc2c(c1)nc(CC(C)(C)C)n2CC1CCCO1 (configuration not stated)	142
Cc1nn(-c2ccc(C(F)(F)F)cn2)cc1COc1cccc(OC(C)(C)C(=O)O)c1	152 to 153
COc1ccc2c3c([nH]c2c1)CC(NC(C)=O)CC3 (configuration not stated)	192 to 193
COC(=O)c1c(NCc2ccc(OC)c(Cl)c2)nc(N2CCC(O)CC2)nc1N1CCn2ccnc2C1	191 to 194
Cc1cc(-c2ccc(C(F)(F)F)cc2)nc2c(C(=O)Nc3cccc(S(C)(=O)=O)c3)cnn12	198 to 200
O=C(O)CC1(O)CCC(N2CCN(CCCNc3ccncc3)CC2)CC1 (configuration not stated)	242
O=C1Cc2cc(NC(=O)C(=O)N3CCC(Cc4ccccc4)CC3)ccc2N1	115 to 118
Cn1cc(-c2ccccc2)c(=O)c(-c2cccc([N+](=O)[O-])c2)c1	135 to 136
Cc1c(NC(=O)c2ccc(OCc3ccccc3)cc2F)ccc2cc(CN3CCCCC3)cnc12	180 to 181
COc1ccccc1[C@@]1(O)[C@H](O)CC(c2ccccc2)(c2ccccc2)[C@@H]2CN(C(=O)Cc3cccc4ccccc34)C[C@@H]21 (racemic)	188 to 190
Cc1ccc(CS(=O)c2nc3cc4c(cc3[nH]2)OC(F)(F)O4)nc1 (configuration not stated)	206 to 208
O=C(O)COc1cccc2c1CCC(CCn1cnc(-c3ccccc3)c1-c1ccccc1)C2 (configuration not stated)	197
CC(=O)c1cccc(Oc2ncccc2C(=O)NCc2ccc(C(C)(C)O)cc2F)c1	68 to 70
O=C(Nc1ccc(Oc2ccccc2)cc1)N1CCN(c2nccc3ccccc23)CC1	122 to 123

SMILES	melting point [°C]
CN(C)C1=NCc2ccc(Cl)cc2O1	118 to 120
N#Cc1ccccc1N1CCN(CCCCCC(=O)O)CC1	120
Nc1nc(N)c2ncn(COCCOC(=O)c3ccccc3)c2n1	205
Nc1ccc(S(=O)(=O)Nc2ccn(CC3CC3)c(=O)n2)cc1	87 to 95
Cc1ccc(-c2cn(C)cc(-c3cccc(C(F)(F)F)c3)c2=O)cc1Br	158 to 161
O=[N+]([O-])c1cccnc1Nc1ccccc1F	97
Clc1ccc2nc(NCc3ccco3)nc(-c3ccccc3)c2c1	142
CCOc1ccc2[nH]c3c(c2c1)C[C@@](C)(C(=O)OC)N[C@@H]3c1cccc(O)c1 (racemic)	173 to 175
CC(C)CNC(=O)C(C)NC(=O)C(C)NC(=O)C(C)NC(=O)CCCC(=O)O (configuration not stated)	292 to 293
CCOC(=O)c1c(N2CCN(C(=O)c3cccs3)CC2)c2cc(Cl)cnc2n(Cc2ccccc2)c1=O	197
CCOc1cc(O)cc2c1C(=O)N(COC(=O)c1c(Cl)cccc1Cl)S2(=O)=O	216 to 217
O=CNc1cnc2ccccc2c1Cl	175 to 177
CCOC(=O)C1=C(C)Nc2nc(N)nc(N3CCOCC3)c2C1c1cccc([N+](=O)[O-])c1 (configuration not stated)	208
O=c1[nH]nc(CCc2cc(F)c(C(F)(F)F)c(F)c2)cc1O	211 to 212
CC(=O)N(Cc1ccc(C[C@@H](C(=O)O)n2cccc2)cc1)Cc1nc(-c2ccccc2)oc1C	97 to 100
CC1(C)C=C(c2ccccn2)c2ccc(Cl)c(Cl)c2OC1	112
O=C(O)/C=C(/C#Cc1ccccc1)c1ccccc1	124 to 126
CC(C#N)=NC(C#N)=C(N)C#N	220 to 221
COCC1CN(C(=O)c2cc(OC)c(OC)c(OC)c2)CCN1C(=O)OC(C)(C)C (configuration not stated)	127
COC(=O)N=P(c1ccccc1)(c1ccccc1)c1ccccc1	138 to 139
Cc1ccc(Cn2c(NC3CCN(CC(O)COc4ccccc4)CC3)nc3ccccc32)o1 (configuration not stated)	165
COc1ccccc1N1CCN(CCC2CN(C)C(=O)O2)CC1 (configuration not stated)	107 to 108
